Measurements published in the NIST ThermoML archive (doi:10.1021/je050305z).

Conditions: Gas, Hot wire method

COC [dimethyl ether]
Conditions	thermal conductivity [W/m/K]
266.62 K, 148.1 kPa	0.01348
267.77 K, 148.1 kPa	0.01359
268.94 K, 148.1 kPa	0.01363
276.2 K, 155.8 kPa	0.01468
276.2 K, 207.5 kPa	0.01475
277.09 K, 207.5 kPa	0.01483
277.12 K, 155.8 kPa	0.01476
278.14 K, 155.8 kPa	0.01482
278.17 K, 207.5 kPa	0.01489
285.91 K, 253.2 kPa	0.01594
286.05 K, 144.6 kPa	0.01592
286.67 K, 253.2 kPa	0.016
286.89 K, 144.6 kPa	0.01605
287.68 K, 253.2 kPa	0.01614
287.99 K, 144.6 kPa	0.01606
295.96 K, 253.2 kPa	0.01725
296.02 K, 352.9 kPa	0.01726
296.03 K, 154.5 kPa	0.01715
296.69 K, 352.9 kPa	0.01736
296.76 K, 253.2 kPa	0.01733
296.8 K, 154.5 kPa	0.01728
297.39 K, 352.9 kPa	0.0174
297.64 K, 253.2 kPa	0.01739
297.76 K, 154.5 kPa	0.01734
305.64 K, 155.2 kPa	0.01827
305.64 K, 502.4 kPa	0.01848
305.8 K, 352.8 kPa	0.01842
306.69 K, 155.2 kPa	0.01839
306.69 K, 502.4 kPa	0.01861
306.8 K, 352.8 kPa	0.01854
307.53 K, 155.2 kPa	0.01852
307.53 K, 502.4 kPa	0.01872
307.82 K, 352.8 kPa	0.01861
315.68 K, 496.3 kPa	0.01958
315.77 K, 348.9 kPa	0.01952
316.05 K, 153.9 kPa	0.01955
316.35 K, 700.4 kPa	0.02006
316.55 K, 496.3 kPa	0.01971
316.56 K, 700.4 kPa	0.01992
316.75 K, 348.9 kPa	0.01967
317.06 K, 153.9 kPa	0.01957
317.2 K, 700.4 kPa	0.01999
317.63 K, 496.3 kPa	0.01983
317.81 K, 348.9 kPa	0.01977
318.26 K, 153.9 kPa	0.01971
325.16 K, 1120.2 kPa	0.02135
325.31 K, 883.7 kPa	0.02119
325.41 K, 701.6 kPa	0.02104
325.53 K, 500.8 kPa	0.02091
325.64 K, 348 kPa	0.0208
325.83 K, 151.5 kPa	0.02082
325.88 K, 1120.2 kPa	0.02135
326.11 K, 883.7 kPa	0.02133
326.2 K, 701.6 kPa	0.02113
326.36 K, 500.8 kPa	0.021
326.53 K, 348 kPa	0.02093
326.73 K, 1120.2 kPa	0.02156
326.79 K, 151.5 kPa	0.02087
326.99 K, 883.7 kPa	0.02145
327.16 K, 701.6 kPa	0.02125
327.38 K, 500.8 kPa	0.02116
327.53 K, 348 kPa	0.02098
327.88 K, 151.5 kPa	0.02094
335.18 K, 1196.9 kPa	0.02256
335.35 K, 898.7 kPa	0.02238
335.43 K, 705.2 kPa	0.02212
335.48 K, 353.4 kPa	0.02197
335.54 K, 505.2 kPa	0.02204
335.66 K, 152.2 kPa	0.02198
335.88 K, 1196.9 kPa	0.02272
336.11 K, 898.7 kPa	0.02244
336.23 K, 705.2 kPa	0.02226
336.32 K, 353.4 kPa	0.02209
336.37 K, 505.2 kPa	0.02217
336.45 K, 1196.9 kPa	0.0228
336.55 K, 152.2 kPa	0.02211
336.74 K, 898.7 kPa	0.0225
336.91 K, 705.2 kPa	0.02231
337.06 K, 505.2 kPa	0.02229
337.25 K, 353.4 kPa	0.02223
337.54 K, 152.2 kPa	0.02207
345.11 K, 1503.9 kPa	0.02418
345.23 K, 1200.4 kPa	0.0239
345.35 K, 897.3 kPa	0.02352
345.47 K, 700 kPa	0.02344
345.57 K, 502.5 kPa	0.02341
345.59 K, 1503.9 kPa	0.02427
345.67 K, 352.7 kPa	0.02338
345.74 K, 1200.4 kPa	0.02399
345.88 K, 154.3 kPa	0.02322
345.9 K, 897.3 kPa	0.02363
346.03 K, 700 kPa	0.0235
346.12 K, 1503.9 kPa	0.0244
346.15 K, 502.5 kPa	0.02351
346.26 K, 352.7 kPa	0.0234
346.29 K, 1200.4 kPa	0.02408
346.49 K, 897.3 kPa	0.02372
346.52 K, 154.3 kPa	0.02324
346.64 K, 700 kPa	0.02364
346.82 K, 502.5 kPa	0.02361
346.93 K, 352.7 kPa	0.0235
347.27 K, 154.3 kPa	0.02327
354.82 K, 2226 kPa	0.02637
355.11 K, 1777.8 kPa	0.02567
355.2 K, 1497.3 kPa	0.02536
355.22 K, 2226 kPa	0.02653
355.33 K, 1194.9 kPa	0.02506
355.47 K, 872.5 kPa	0.02483
355.55 K, 701.6 kPa	0.02472
